Values quoted from earlier work as cited in patent US20110281902A1, “COMBINATIONS COMPRISING A PROTEIN KINASE INHIBITOR BEING A PYRIMIDYLAMINOBENZAMIDE COMPOUND AND A HSP90 INHIBITOR SUCH AS 17-AAG” (priority 2005, published 2011).

Columns and labels:
[1] = clinical trials in hematological malignancies and solid tumors
[2] = makes it difficult to formulate/administer

solubility [2]: poor solubility
SMILES: C=CCNC1=C2C[C@@H](C)C[C@H](OC)[C@H](O)[C@@H](C)/C=C(\C)[C@H](OC(N)=O)[C@@H](OC)/C=C\C=C(/C)C(=O)NC(=CC1=O)C2=O [17-AAG, 17-allylamino-17-demethoxygeldanamycin]
dose limiting toxicity [1]: hepatic
